The record followed here is patent US9255100B2 (BAYER INTELLECTUAL PROPERTY GMBH, priority 2010, dated 2016).

A value given as a limit tells only on which side of the number the result lay.

The target of the assay is T1, N-terminally GST-tagged human full length recombinant Mps-1 kinase (Homo sapiens, UniProt P33981).
T1 construct: N-terminally GST-tagged human full length recombinant Mps-1 kinase; purchased Invitrogen, Karslruhe, Germany PV4071
T1 sequence (P33981 1-857): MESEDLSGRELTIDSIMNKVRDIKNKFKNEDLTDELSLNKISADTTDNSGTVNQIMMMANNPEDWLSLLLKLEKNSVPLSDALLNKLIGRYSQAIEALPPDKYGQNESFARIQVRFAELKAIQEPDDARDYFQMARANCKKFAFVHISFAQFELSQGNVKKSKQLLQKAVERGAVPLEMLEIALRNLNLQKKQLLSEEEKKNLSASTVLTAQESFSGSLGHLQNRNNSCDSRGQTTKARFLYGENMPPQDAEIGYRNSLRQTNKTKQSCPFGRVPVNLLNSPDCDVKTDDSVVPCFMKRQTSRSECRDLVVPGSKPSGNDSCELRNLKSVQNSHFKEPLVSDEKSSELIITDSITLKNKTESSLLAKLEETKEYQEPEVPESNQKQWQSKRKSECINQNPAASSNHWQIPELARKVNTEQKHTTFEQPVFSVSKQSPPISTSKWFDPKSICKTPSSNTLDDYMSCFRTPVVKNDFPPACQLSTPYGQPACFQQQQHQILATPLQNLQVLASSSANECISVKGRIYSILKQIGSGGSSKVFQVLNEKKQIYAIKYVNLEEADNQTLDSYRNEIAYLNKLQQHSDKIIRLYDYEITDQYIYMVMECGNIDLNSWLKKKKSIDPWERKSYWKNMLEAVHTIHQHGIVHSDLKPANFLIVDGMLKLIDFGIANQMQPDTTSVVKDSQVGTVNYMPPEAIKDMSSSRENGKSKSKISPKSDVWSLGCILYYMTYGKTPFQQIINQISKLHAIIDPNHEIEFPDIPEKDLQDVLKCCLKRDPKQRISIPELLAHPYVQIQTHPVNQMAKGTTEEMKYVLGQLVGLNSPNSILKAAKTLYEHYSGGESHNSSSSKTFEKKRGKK
The experiment in a line: Mps-1 kinase assay (TR-FRET). In kind it is biochemical. The following applies: Mps1 IC50 [nM], 10 μM ATP, 1 μM peptide substrate, 60 min at 22° C. As for the experimental part:
The human kinase Mps-1 phosphorylates a biotinylated substrate peptide. Detection of the phosphorylated product is achieved by time-resolved fluorescence resonance energy transfer (TR-FRET) from Europium-labelled anti-phospho-Serine/Threonine antibody as donor to streptavidin labelled with cross-linked allophycocyanin (SA-XLent) as acceptor. Compounds are tested for their inhibition of the kinase activity.
N-terminally GST-tagged human full length recombinant Mps-1 kinase (purchased from Invitrogen, Karslruhe, Germany, cat. no PV4071) was used. As substrate for the kinase reaction a biotinylated peptide of the amino-acid sequence […] (C-terminus in amide form, purchased from Biosynthan GmbH, Berlin) was used.
The concentration of Mps-1 in the assay was adjusted to the activity of the enzyme lot and was chosen appropriate to have the assay in the linear range, typical enzyme concentrations were in the range of about 1 nM (final conc. in the 5 μl assay volume).
The resulting mixture was incubated 1 h at 22° C. to allow the binding of the phosphorylated peptide to the anti-phospho(Ser/Thr)-Europium-antibody. Subsequently the amount of phosphorylated substrate was evaluated by measurement of the resonance energy transfer from the Europium-labelled anti-phospho(Ser/Thr) antibody to the Streptavidin-XLent.
On the technique in general: In TR-FRET formats the signal depends on donor and acceptor labels being close together.
For orientation: IC50 means the concentration needed to halve the response being measured. `CC(=O)NCCCNc1cc(Oc2cccc(F)c2)nn2c(-c3ccc(C(=O)NC4CC4)c(C)c3)cnc12` [Example 509, 4-[8-{[3-(acetylamino)propyl]amino}-6-(3-fluorophenoxy)imidazo[1,2-b]pyridazin-3-yl]-N-cyclopropyl-2-methyl-benzamide]: the IC50 worked out at 0.1 nM. To `CC(=O)Nc1ccncc1Oc1cc(NCCC(F)(F)F)c2ncc(-c3ccc(C(=O)NC4CC4)c(C)c3)n2n1` [Example 476, 4-(6-{[4-(acetylamino)pyridin-3-yl]oxy}-8-[(3,3,3-trifluoropropyl)amino]imidazo[1,2-b]pyridazin-3-yl)-N-cyclo-propyl-2-methyl-benzamide] belongs 10.3 nM. To `CC(C)(O)CNc1cc(Oc2ccccc2)nn2c(-c3ccc(C(=S)NC4CC4)cc3)cnc12` [Example 243, N-cyclopropyl-4-{8-[(2-hydroxy-2-methylpropyl)amino]-6-phenoxyimidazo[1,2-b]pyridazin-3-yl}benzenecarbothioamide] belongs 0.9 nM. To `Cc1cc(-c2cnc3c(NCC(C)(C)O)cc(Oc4ccccn4)nn23)ccc1C(=O)NC1CC1` [Example 274, N-cyclopropyl-4-{8-[(2-hydroxy-2-methylpropyl)amino]-6-(pyridin-2-yloxy)imidazo[1,2-b]pyridazin-3-yl}-2-methylbenzamide] belongs 73.8 nM. Take `Cc1ccc(F)cc1Oc1cc(NCC2CNC2)c2ncc(-c3ccc(C(=O)NC4CC4)c(C)c3)n2n1` [Example 545, 4-{8-[(azetidin-3-ylmethyl)amino]-6-(5-fluoro-2-methylphenoxy)imidazo[1,2-b]pyridazin-3-yl}-N-cyclopropyl-2-methylbenzamide]: the IC50 was determined as 0.1 nM. Next, `CNC(=O)c1ccc(-c2cnc3c(NCCC(F)(F)F)cc(Oc4cccc(F)c4)nn23)cc1C` [Example 575, 4-{6-(3-fluorophenoxy)-8-[(3,3,3-trifluoropropyl)a-mino]imidazo[1,2-b]pyridazin-3-yl}-N,2-dimethylbenzamide]: under 1 nM. With `Cc1cc(-c2cnc3c(NCC(C)(C)O)cc(Nc4ccc(F)nc4)nn23)ccc1C(=O)NC1CC1` [Example 406, N-cyclopropyl-4-{6-[(6-fluoropyridin-3-yl)amino]-8-[(2-hydroxy-2-methylpropyl)amino]imidazo[1,2-b]pyridazin-3-yl}-2-methylbenzamide], the half-maximal inhibitory concentration (IC50) was found to be 0.4 nM. Take `Cc1cc(-c2cnc3c(NCC(C)(C)O)cc(-c4ccc(F)cc4CO)nn23)ccc1C(=O)NC1CC1` [Example 299, N-cyclopropyl-4-{6-[4-fluoro-2-(hydroxymethyl)phenyl]-8-[(2-hydroxy-2-methylpropyl)amino]imidazo[1,2-b]pyridazin-3-yl}-2-methylbenzamide]: the IC50 is 6.9 nM. As for `COc1ccc(Nc2cc(NCC(C)(C)O)c3ncc(-c4ccc(C(=O)NC5CC5)c(C)c4)n3n2)cc1` [Example 354, N-cyclopropyl-4-{8-[(2-hydroxy-2-methylpropyl)amino]-6-[(4-methoxyphenyl)amino]imidazo[1,2-b]pyridazin-3-yl}-2-methylbenzamide], the IC50 turned out to be 0.4 nM.

For `C/C=C(\C)c1cc(NCCC(F)(F)F)c2ncc(-c3ccc(C(=O)NC4CC4)c(C)c3)n2n1` [Example 221, 4-{6-[(2E)-but-2-en-2-yl]-8-[(3,3,3-trifluoropropyl)amino]imidazo[1,2-b]pyridazin-3-yl}-N-cyclopropyl-2-methylbenzamide], the IC50 stood at 1.2 nM. For the molecule `Cc1cc(-c2cnc3c(NCCC(F)(F)F)cc(Oc4ccc(F)cc4)nn23)ccc1C(=O)NC1CC1` [Example 472, N-cyclopropyl-4-{6-(4-fluorophenoxy)-8-[(3,3,3-trifluoropropyl)amino]imidazo[1,2-b]pyridazin-3-yl}-2-methyl-benzamide], the IC50 came to 0.2 nM. With `O=C(NC1CC1)c1ccc(-c2cnc3c(NCc4cccs4)cc(Cl)nn23)cc1Cl` [Example 187, 2-Chloro-4-{6-chloro-8-[(thiophen-2-ylmethyl)amino]imidazo[1,2-b]pyridazin-3-yl}-N-cyclopropyl-benzamide], the IC50 turned out to be 49.8 nM.

In the case of `Cc1cc(-c2cnc3c(NCCN4CCOCC4)cc(Oc4cncc(F)c4)nn23)ccc1C(=O)NC1CC1` [Example 541, N-cyclopropyl-4-(6-[(5-fluoro-pyridin-3-yl)oxy]-8-{[2-(morpholin-4-yl)ethyl]amino}imidazo[1,2-b]pyridazin-3-yl)-2-methylbenzamide], the IC50 amounted to 0.4 nM. Next, `Cc1cc(-c2cnc3c(NCC4CCSCC4)cc(Oc4cccc(F)c4F)nn23)ccc1C(=O)NC1CC1` [Example 293, N-cyclopropyl-4-{6-(2,3-difluorophenoxy)-8-[(tetrahydro-2H-thiopyran-4-ylmethyl)amino]imidazo[1,2-b]pyridazin-3-yl}-2-methylbenzamide]: 0.4 nM. To `Cc1cc(-c2cnc3c(NCC(C)(C)O)cc(C4=CCOCC4)nn23)ccc1C(=O)NC1CC1` [Example 166, N-cyclopropyl-4-{6-(3,6-dihydro-2H-pyran-4-yl)-8-[(2-hydroxy-2-methylpropyl)amino]imidazo[1,2-b]pyridazin-3-yl}-2-methylbenzamide] belongs 5.3 nM; to `Cc1cc(-c2cnc3c(NCCC(F)(F)F)cc(N4CCCc5cccc(O)c54)nn23)ccc1C(=O)NC1CC1` [Example 467, N-cyclopropyl-4-{6-(8-hydroxy-3,4-dihydro-quinolin-1(2H)-yl)-8-[(3,3,3-trifluoropropyl)amino]imidazo[1,2-b]pyridazin-3-yl}-2-methyl-benzamide], 1.6 nM; to `COC(C)(C)CNc1cc(-c2ccnn2C)nn2c(-c3ccc(C(=O)NC4CC4)c(C)c3)cnc12` [Example 39, N-cyclopropyl-4-{8-[(2-methoxy-2-methylpropyl)amino]-6-(1-methyl-1H-pyrazol-5-yl)imidazo[1,2-b]pyridazin-3-yl}-2-methylbenzamide], 3.7 nM. Next, `Cc1cc(-c2cnc3c(NCC(F)(F)F)cc(Oc4cccc(F)c4)nn23)ccc1C(=O)NC1CC1` [Example 514, N-cyclopropyl-4-{6-(3-fluoro-phenoxy)-8-[(2,2,2-trifluoroethyl)amino]imidazo[1,2-b]pyridazin-3-yl}-2-methylbenzamide]: 8 nM; `Cc1cc(-c2cnc3c(NCC(C)(C)N)cc(-c4ccc(F)cc4)nn23)ccc1C(=O)NC1CC1` [Example 57, 4-{8-[(2-Amino-2-methylpropyl)amino]-6-(4-fluorophenyl)imidazo[1,2-b]pyridazin-3-yl}-N-cyclopropyl-2-methylbenzamide]: 4.4 nM; `Cc1cc(-c2cnc3c(NCCC(F)(F)F)cc(SC4CCCCC4)nn23)ccc1C(=O)NC1CC1` [Example 171, 4-{6-(cyclohexylsulfanyl)-8-[(3,3,3-trifluoropropyl)amino]imidazo [1,2-b]pyridazin-3-yl}-N-cyclopropyl-2-methylbenzamide]: 0.8 nM. Consider `Cc1cc(-c2cnc3c(NCCC(F)(F)F)cc(Sc4ccc(Cl)cc4CO)nn23)ccc1C(=O)NC1CC1` [Example 392, 4-(6-{[4-chloro-2-(hydroxymethyl)phenyl]sulfanyl}-8-[(3,3,3-trifluoropropyl)amino]imidazo[1,2-b]pyridazin-3-yl)-N-cyclopropyl-2-methylbenzamide], for which the IC50 was found to be 0.4 nM.

For `Cc1cc(-c2cnc3c(NCC(C)(C)O)cc(Oc4ccc(F)cc4)nn23)ccc1C(=O)NC1CC1` [Example 253, N-cyclopropyl-4-{6-(4-fluorophenoxy)-8-[(2-hydroxy-2-methylpropyl)amino]imidazo[1,2-b]pyridazin-3-yl}-2-methylbenzamide], the IC50 came out at 0.3 nM. To `Cc1cc(-c2cnc3c(NCC(C)(C)O)cc(Oc4cccc(C#N)c4)nn23)ccc1C(=O)NC1CC1` [Example 82, 4-{6-(3-Cyanophenoxy)-8-[(2-hydroxy-2-methylpropyl)amino]imidazo[1,2-b]pyridazin-3-yl}-N-cyclopropyl-2-methylbenzamide] belongs 0.3 nM.
